Reference: article PMC6430037 (Heliyon, 2019)

What was measured:
[1] = test system: BDZ-bs of the GABAA receptor; test: [3H]-FNZ radioligand binding assay; conditions: [3H]-FNZ displacement, compound at 300 μM, rat cerebral cortex membranes
[2] = target: T1, 5-HT1A receptor (Rattus norvegicus, UniProt P19327); test: [3H]-8-OH-DPAT radioligand binding assay
T1 sequence (P19327 1-422): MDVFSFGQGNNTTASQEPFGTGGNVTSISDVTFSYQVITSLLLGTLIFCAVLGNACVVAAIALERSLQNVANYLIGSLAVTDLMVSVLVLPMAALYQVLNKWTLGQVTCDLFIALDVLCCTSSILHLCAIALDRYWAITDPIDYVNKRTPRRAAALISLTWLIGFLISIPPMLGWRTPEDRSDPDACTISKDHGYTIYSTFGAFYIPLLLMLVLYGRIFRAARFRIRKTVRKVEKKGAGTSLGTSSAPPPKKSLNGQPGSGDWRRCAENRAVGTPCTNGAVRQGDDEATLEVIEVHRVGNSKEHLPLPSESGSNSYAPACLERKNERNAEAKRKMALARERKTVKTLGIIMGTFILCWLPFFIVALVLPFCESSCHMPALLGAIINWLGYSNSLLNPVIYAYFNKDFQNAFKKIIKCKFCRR

[3] = target: T2, μ-opioid receptor (Rattus norvegicus, UniProt P33535); test: [3H]-DAMGO radioligand binding assay; conditions: read-out: μ-opioid Binding inhibition (%) [300 μM]
[4] = Cell viability assay; type: cell-based, human; conditions: human, SH-SY5Y cells
[5] = test system: SH-SY5Y cells; test: Cell viability assay; type: cell-based, human; conditions: 48 h, SH-SY5Y
[6] = PAMPA-BBB permeability assay; type: in vitro ADME
[7] = test system: mice; test: Tail suspension test; type: in vivo; conditions: 30 min before
[8] = test system: mice; test: Spontaneous locomotor activity; type: in vivo; conditions: 30 mg/kg i.p., 5 min counts
[9] = target: T2, μ-opioid receptor; conditions: read-out: μ-opioid Ki; [3H]-DAMGO, rat forebrain membranes; cited from earlier work
[10] = test system: hMAO B; conditions: read-out: IC50 hMAO B; cited from earlier work
[11] = test system: hMAO A; conditions: cited from earlier work
[12] = target: benzodiazepine binding site (BDZ-bs) of the GABAA receptor; conditions: read-out: Ki for the BDZ-bs of the GABAA receptor; cited from earlier work
[13] = test system: rats; conditions: cited from earlier work

T2 sequence (P33535 whole entry): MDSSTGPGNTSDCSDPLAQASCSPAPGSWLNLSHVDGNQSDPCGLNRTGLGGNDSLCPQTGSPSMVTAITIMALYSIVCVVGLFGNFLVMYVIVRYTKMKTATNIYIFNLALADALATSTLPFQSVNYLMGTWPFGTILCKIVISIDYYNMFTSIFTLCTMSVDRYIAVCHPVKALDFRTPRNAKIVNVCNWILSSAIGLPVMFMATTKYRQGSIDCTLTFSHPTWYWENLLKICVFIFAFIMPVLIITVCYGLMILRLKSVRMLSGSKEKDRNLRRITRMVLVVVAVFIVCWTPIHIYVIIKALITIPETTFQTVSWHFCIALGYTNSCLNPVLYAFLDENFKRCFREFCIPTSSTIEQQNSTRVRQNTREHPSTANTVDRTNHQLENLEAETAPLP

| BDZ-bs Binding inhibition (%) [300 μM] [1] | Ki [2] [µM] | inhibition at 300 µM ([2]; read-out: 5-HT1A Binding Inhibition (%) [300 μM]) [%] | inhibition at 300 µM [3] [%] | Papp at 16 h, 50 µM ([6]; PAMPA, pH 7.4) [×10⁻⁶ cm/s] | spontaneous locomotor activity vs VEH [8] | SMILES | viability at 48 h, 20 µM [4] [%] | concentration up to which cell viability was not affected [5] [µM] | BBB penetration estimation Prediction ([6]; PAMPA-BBB binning by -logPe) | immobility time vs VEH ([7]; 10 mg/kg i.p.) | immobility time vs VEH ([7]; 30 mg/kg i.p.) | Ki [9] [µM] | IC50 [10] [µM] | effect on hMAO A [11] | Ki [12] [µM] | effect in the plus-maze test [13] |
| --- | --- | --- | --- | --- | --- | --- | --- | --- | --- | --- | --- | --- | --- | --- | --- | --- |
| ++++ (inhibition >90% (++++)) | 20.8 ± 1.5 | 60 to 90 | 60 to 90 | 26.3 | significant increase | O=C(/C=C/c1ccccc1)c1ccccc1 [Compound 1, Chalcone] | 95.9 | 75 | CNS+ (CNS+, -logPe < 5.6, high permeability) | significantly reduced | significantly reduced | 28.2 ± 9.9 | 1.41 ± 0.07 | no effect |  |  |
|  |  |  |  |  |  | O=C(/C=C/c1ccc(O)cc1)c1ccc(O)cc1O [isoliquiritigenin, 2′,4′,4-trihydroxychalcone] |  |  |  |  |  |  |  |  | 0.45 | anxiolytic-like effect |
